Data published in patent US7649095B2, “Piperidine derivatives and agent comprising the derivative as active ingredient” (Ono Pharmaceutical Co., Ltd., priority 2003, dated 2010).
Where a name gives a salt, the structure may show the parent alone.

Target: PDE4
Experiment: In vitro enzyme assay: PDE4 inhibitory activity
Assay type: biochemical
Details: PDE4 enzyme solution from U937 cells (originated from human monocyte), 3H-cAMP substrate, room temperature 30 minutes
Experimental: U937 cells (originated from human monocyte) were cultured in PRMI 1640 medium containing 10% fetal bovine serum. The U937 cells were harvested and homogenized in 20 mM Tris-HCl buffer [pH 8.0, containing PMSF (1 mM), leupeptin (1 μg/ml) and pepstatin A (1 μg/ml)]. After centrifugation (at 15,000 rpm for 10 minutes), the supernatant was recovered and filtered through a 0.45 μm filter. The sample was applied to MonoQ (manufactured by Pharmacia, strong anion exchange resin) column and eluted by a density gradient of 0 to 0.8 M NaCl. Fractions from which the PDE activity was disappeared by 10 μM rolipram (a PDE4-selective inhibitor) were recovered and used as the enzyme solution for the measurement of PDE4 inhibitory activity.
The enzyme activity was measured by the following method. […] To an alumina column (100 μl), 50 μl of the supernatant was applied, eluted with 80 μl of 0.005 N hydrochloric acid, and radioactivity of the eluate was measured.
PDE4 inhibitory activity ratio of the compound of the present invention was calculated by the following equation: PDE4 inhibitory activity ratio (%)=(1−radioactivity in the presence of the compound of the present invention/radioactivity in the absence of the compound of the present invention)×100 […]

`COc1ccc(C2(C#N)CCN(CC(=O)NO)CC2)cc1OC1CCCC1` [Example 3, N-hydroxy-2-(4-(3-cyclopentyloxy-4-methoxyphenyl)-4-cyanopiperidin-1-yl)acetamide·hydrochloride] was tested, and the IC50 was 30 pM.
